# Experimental data from US4731109A, “Herbicidal 2-haloacetanilides” (Monsanto Company, priority 1982, dated 1988).
# Assays:
# Quackgrass = test: Herbicidal effect in a variety of soil types; assay type: in vivo; details: for selectivity factor (GR15/GR85): in soybeans
# wild proso millet = test: Greenhouse pre-emergence GR15/GR85 selectivity test; assay type: in vivo, wild proso millet (panicum milicaeum)
# Description: (§1) A good grade of top soil is placed in aluminum pans and compacted to a depth of three-eighths to one-half inch from the top of the pan. On the top of the soil is placed a number of seeds or vegetative propagules of various plant species. The soil required to level fill the pans after seeding or adding vegetative propagules is weighed into a pan. The soil and a known amount of the active ingredient applied in a solvent or as a wettable powder suspension are thoroughly mixed, and used to cover the prepared pans. […] As an alternative procedure, the overhead irrigation may be omitted. Observations are made about 2-3 weeks after seeding and treatment.
# (§2) A further guide to the effectiveness of a chemical as a selective herbicide is the "selectivity factor" ("SF") for a herbicide in given crops and weeds. The selectivity factor is a measure of the relative degree of crop safety and weed injury and is expressed in terms of the GR15 /GR85 ratio, i.e., the GR15 rate for the crop divided by the GR85 rate for the weed, both rates in kg/ha (lb/A). In the tables below, selectivity factors are shown in parenthesis following the GR85 rate for each weed; the symbol "NS" indicates "non-selective". Marginal or undetermined selectivity is indicated by a dash (--).
# (§3) Unless otherwise noted; greenhouse tests in Table VI and in other tables below involved herbicide treatments by soil incorporation and an initial overhead irrigation followed by subirrigation as described above.
# corn = test: as above; assay type: in vivo
# Description: (§4) A good grade of top soil is placed in aluminum pans and compacted to a depth of three-eighths to one-half inch from the top of the pan. On the top of the soil is placed a number of seeds or vegetative propagules of various plant species. The soil required to level fill the pans after seeding or adding vegetative propagules is weighed into a pan. The soil and a known amount of the active ingredient applied in a solvent or as a wettable powder suspension are thoroughly mixed, and used to cover the prepared pans. After treatment, the pans are given an initial overhead irrigation of eater, equivalent to one-fourth inch (0.64 cm) rainfall, then watered by subirrigation as need to give adequate moisture for germination and growth. As an alternative procedure, the overhead irrigation may be omitted. Observations are made about 2-3 weeks after seeding and treatment.
# (§5) In the discussion and tables of data below, reference is made to herbicide application rates symbolized as "GR15 " and "GR85 "; these rates are given in kilograms per hectare (kg/ha) which are convertible into pounds per acre (lbs/A) by dividing the kg/ha rate by 1.12.
# as §2
# In Table IV pre-emergence herbicidal activity data are presented comparing the relative efficacy of the invention compounds and said prior art compounds as selective herbicides against the resistant and troublesome perennial weeds quackgrass and yellow nutsedge in soybeans and corn, respectively. These weeds are commonly associated with such major crops as corn and soybeans. The test data in Table IV were obtained under identical procedural conditions and represent two replicate runs (except for the compound of Example 9 which was present in one comparative test). The test procedure was the same as described for Tables II and III but modified by the application of an initial overhead irrigation equivalent to 1/4" (0.64 cm) rainfall; subsequent watering was accomplished by subirrigation. "NS" means non-selective within the test limits.
# (§6) Additionally, pre-emergence herbicidal data from other tests have established that compounds according to this invention also selectively suppress quackgrass, yellow nutsedge and/or other weeds in one or more of the crops cotton, peanuts, bush beans and/or rape. For example, in Table VI are presented data showing the herbicidal selectivity of the compounds of Examples 1 and 2 against quackgrass in rape and snap beans. Unless otherwise noted; greenhouse tests in Table VI and in other tables below involved herbicide treatments by soil incorporation and an initial overhead irrigation followed by subirrigation as described above.
# rape = test: as above; assay type: in vivo
# Description: as §4, §5, §2, §6
# (§7) In another greenhouse test, the compounds of Examples 3-5, 9 and 10 were tested for their herbicidal efficacy against a variety of resistant annual and perennial weeds in rape.
# seedling johnsongrass = test: as above; assay type: in vivo
# Description: as §1, §2, §3
# fall panicum = test: as above; assay type: in vivo
# Description: as §1, §2, §3
# shattercane = test: as above; assay type: in vivo
# Description: as §1, §2, §3
# Texas panicum = test: as above; assay type: in vivo
# Description: as §1, §2, §3
# itchgrass = test: as above; assay type: in vivo
# Description: as §1, §2, §3
# alexandergrass = test: as above; assay type: in vivo; details: for selectivity factor (GR15/GR85): in rape
# Description: as §1, §2, §3
# red rice = test: as above; assay type: in vivo
# Description: as §1, §2, §3
# soybeans = test: Herbicidal effect in a variety of soil types; assay type: in vivo
# purple nutsedge = test: Greenhouse pre-emergence GR15/GR85 selectivity test; assay type: in vivo; details: Table XV; for selectivity factor (GR15/GR85): in rape
# Description: as §4, §5, §2, §6
# In other greenhouse tests, compounds according to this invention have shown selective control of a variety of annual and perennial weeds in various crops. As further illustrative, the compound of Example 1 selectively controlled purple nutsedge in both corn nd soybeans, the respective crop/weed GR15 /GR85 ratios (expressed in kg/ha) being 0.67/0.25 (S.F.=2.7) in corn and 1.1/0.25 (S.F.=4.5) in soybeans. The compound of Example 8 has shown selective control of yellow nutsedge and quackgrass in corn and soybeans. The respective crop/yellownutsedge GR15 /GR85 ratios being >2.2/0.95 (S.F.=2.5) in corn; 2.2/0.5 (SF=4.5) in soybeans and the respective GR15 /GR85 ratios for both corn and soybeans in quackgrass being >2.2/0.5 (S.F.=4.5). In a test against yellow nutsedge in cotton, the GR15 /GR85 ratio (average of two replicates) was 2.0/0.95 (S.F.=2).
# as §7
# [1] = Drummer silty clay, Table XVII A
# [2] = Drummer silty clay, Table XVII B
# [3] = Wabash silty clay, Table XVII B
smiles,measurement,setting,value
"CC(C)OCN(C(=O)CCl)c1ccccc1C(F)(F)F [Example 2, N--(isopropoxymethyl)-2'-trifluoromethyl-2-chloroacetanilide]",GR85,Quackgrass; [1],0.56 Kg/Ha
same,GR85,"Quackgrass; Florida muck, Table XVII A",0.95 Kg/Ha
same,GR85,"Quackgrass; Florida sand, Table XVII A",0.22 Kg/Ha
same,GR85,"Quackgrass; Ray silt loam, Table XVII A",0.28 Kg/Ha
same,GR85,"Quackgrass; Sarpy silty clay, Table XVII A",0.43 Kg/Ha
same,GR85,"Quackgrass; Wabash silty clay, Table XVII A",0.34 Kg/Ha
same,selectivity factor (GR15/GR85),Quackgrass; [1],> 4
same,selectivity factor (GR15/GR85),"Quackgrass; Florida muck, Table XVII A",> 2
same,selectivity factor (GR15/GR85),"Quackgrass; Florida sand, Table XVII A",7.5
same,selectivity factor (GR15/GR85),"Quackgrass; Ray silt loam, Table XVII A",8
same,selectivity factor (GR15/GR85),"Quackgrass; Sarpy silty clay, Table XVII A",> 5
same,GR85 Rate,wild proso millet; Table XIV,1.1 Kg/Ha
same,selectivity factor (GR15/GR85),"wild proso millet; in soybeans, Table XIV",> 1.0
same,GR15,"corn; Table IV, Replicate #1",3.1 Kg/Ha
same,GR15,"corn; Table IV, Replicate #2",0.78 Kg/Ha
same,GR15 Rate,rape; Table VI,1.9 Kg/Ha
same,GR85 Rate,seedling johnsongrass; Table XIV,0.28 Kg/Ha
same,selectivity factor (GR15/GR85),"seedling johnsongrass; in soybeans, Table XIV",> 4.0
same,GR85 Rate,fall panicum; Table XIV,< 0.07 Kg/Ha
same,selectivity factor (GR15/GR85),"fall panicum; in soybeans, Table XIV",> 16
same,GR85 Rate,shattercane; Table XIV,0.93 Kg/Ha
same,selectivity factor (GR15/GR85),"shattercane; in soybeans, Table XIV",> 1.12
same,GR85 Rate,Texas panicum; Table XIV,> 1.12 Kg/Ha
same,GR85 Rate,itchgrass; Table XIV,> 1.1 Kg/Ha
same,GR85 Rate,alexandergrass; Table XIV,> 1.1 Kg/Ha
same,GR85 Rate,red rice; Table XIV,0.14 Kg/Ha
same,selectivity factor (GR15/GR85),"red rice; in soybeans, Table XIV",> 8.0
same,GR15,soybeans; [1],> 2.2 Kg/Ha
same,GR15,"soybeans; Florida muck, Table XVII A",> 2.2 Kg/Ha
same,GR15,"soybeans; Florida sand, Table XVII A",1.7 Kg/Ha
same,GR15,"soybeans; Ray silt loam, Table XVII A",2.2 Kg/Ha
same,GR15,"soybeans; Sarpy silty clay, Table XVII A",> 2.2 Kg/Ha
"CCCOCN(C(=O)CCl)c1c(CC)cccc1C(F)(F)F [Example 10, N--(n-propoxymethyl)-2'-trifluoromethyl-6'-ethyl-2-chloroacetanilide]",GR85 Rate,purple nutsedge,0.18 Kg/Ha
same,selectivity factor (GR15/GR85),purple nutsedge,> 6.2
same,GR85 Rate,wild proso millet; Table XVI,0.80 Kg/Ha
same,selectivity factor (GR15/GR85),"wild proso millet; in lima beans, Table XVI",> 1.4
same,selectivity factor (GR15/GR85),"wild proso millet; in peanuts, Table XVI",1.2
same,GR15,corn; Table XII,1.7 Kg/Ha
same,GR15,corn; Table XIII,2.5 Kg/Ha
same,GR15 Rate,rape; Table XV,> 1.12 Kg/Ha
same,GR85 Rate,seedling johnsongrass; Table XVI,0.36 Kg/Ha
same,selectivity factor (GR15/GR85),"seedling johnsongrass; in lima beans, Table XVI",> 3.1
same,selectivity factor (GR15/GR85),"seedling johnsongrass; in peanuts, Table XVI",2.7
same,GR85 Rate,fall panicum; Table XVI,0.22 Kg/Ha
same,selectivity factor (GR15/GR85),"fall panicum; in lima beans, Table XVI",> 5.1
same,selectivity factor (GR15/GR85),"fall panicum; in peanuts, Table XVI",4.5
same,GR85 Rate,shattercane; Table XVI,0.56 Kg/Ha
same,selectivity factor (GR15/GR85),"shattercane; in lima beans, Table XVI",> 2
same,selectivity factor (GR15/GR85),"shattercane; in peanuts, Table XVI",1.8
same,GR85 Rate,Texas panicum; Table XVI,1.1 Kg/Ha
same,selectivity factor (GR15/GR85),"Texas panicum; in lima beans, Table XVI",> 1
same,selectivity factor (GR15/GR85),"Texas panicum; in peanuts, Table XVI",NS (non-selective)
same,GR85 Rate,itchgrass; Table XVI,0.90 Kg/Ha
same,selectivity factor (GR15/GR85),"itchgrass; in lima beans, Table XVI",> 1.2
same,selectivity factor (GR15/GR85),"itchgrass; in peanuts, Table XVI",1.1
same,GR85 Rate,alexandergrass; Table XV,0.36 Kg/Ha
same,selectivity factor (GR15/GR85),alexandergrass; Table XV,> 3.1
same,GR85 Rate,red rice; Table XVI,0.98 Kg/Ha
same,selectivity factor (GR15/GR85),"red rice; in lima beans, Table XVI",> 1.1
same,selectivity factor (GR15/GR85),"red rice; in peanuts, Table XVI",1
"Cc1cccc(C(F)(F)F)c1N(COCC(C)C)C(=O)CCl [Example 5, N--(isobutoxymethyl)-2'-trifluoromethyl-6'-methyl-2-chloroacetanilide]",GR85 Rate,purple nutsedge,0.23 Kg/Ha
same,selectivity factor (GR15/GR85),purple nutsedge,> 4.9
same,GR85,Quackgrass; [2],1.1 Kg/Ha
same,GR85,"Quackgrass; Florida muck, Table XVII B",3.0 Kg/Ha
same,GR85,"Quackgrass; Florida sand, Table XVII B",1.1 Kg/Ha
same,GR85,"Quackgrass; Ray silt loam, Table XVII B",> 2.2 Kg/Ha
same,GR85,"Quackgrass; Sarpy silty clay, Table XVII B",1.6 Kg/Ha
same,GR85,Quackgrass; [3],1.6 Kg/Ha
same,selectivity factor (GR15/GR85),Quackgrass; [2],2
same,selectivity factor (GR15/GR85),"Quackgrass; Florida sand, Table XVII B",3
same,selectivity factor (GR15/GR85),"Quackgrass; Ray silt loam, Table XVII B",NS (non-selective)
same,selectivity factor (GR15/GR85),"Quackgrass; Sarpy silty clay, Table XVII B",2
same,selectivity factor (GR15/GR85),Quackgrass; [3],1.5
same,GR85 Rate,wild proso millet; Table XVI,0.56 Kg/Ha
same,selectivity factor (GR15/GR85),"wild proso millet; in lima beans, Table XVI",> 2
same,selectivity factor (GR15/GR85),"wild proso millet; in peanuts, Table XVI",1
same,GR15 Rate,rape; Table XV,> 1.12 Kg/Ha
same,GR85 Rate,seedling johnsongrass; Table XVI,0.37 Kg/Ha
same,selectivity factor (GR15/GR85),"seedling johnsongrass; in lima beans, Table XVI",> 3
same,selectivity factor (GR15/GR85),"seedling johnsongrass; in peanuts, Table XVI",1.5
same,GR85 Rate,fall panicum; Table XVI,0.28 Kg/Ha
same,selectivity factor (GR15/GR85),"fall panicum; in lima beans, Table XVI",> 4
same,selectivity factor (GR15/GR85),"fall panicum; in peanuts, Table XVI",2
same,GR85 Rate,shattercane; Table XVI,0.56 Kg/Ha
same,selectivity factor (GR15/GR85),"shattercane; in lima beans, Table XVI",> 2
same,selectivity factor (GR15/GR85),"shattercane; in peanuts, Table XVI",1
same,GR85 Rate,Texas panicum; Table XVI,0.53 Kg/Ha
same,selectivity factor (GR15/GR85),"Texas panicum; in lima beans, Table XVI",> 2.1
same,selectivity factor (GR15/GR85),"Texas panicum; in peanuts, Table XVI",1.1
same,GR85 Rate,itchgrass; Table XVI,0.56 Kg/Ha
same,selectivity factor (GR15/GR85),"itchgrass; in lima beans, Table XVI",> 2
same,selectivity factor (GR15/GR85),"itchgrass; in peanuts, Table XVI",1
same,GR85 Rate,alexandergrass; Table XV,0.7 Kg/Ha
same,selectivity factor (GR15/GR85),alexandergrass; Table XV,> 1.6
same,GR85 Rate,red rice; Table XVI,0.53 Kg/Ha
same,selectivity factor (GR15/GR85),"red rice; in lima beans, Table XVI",> 2.1
same,selectivity factor (GR15/GR85),"red rice; in peanuts, Table XVI",1.1
same,GR15,soybeans; [2],2.2 Kg/Ha
same,GR15,"soybeans; Florida muck, Table XVII B",> 2.0 Kg/Ha
same,GR15,"soybeans; Florida sand, Table XVII B",3.0 Kg/Ha
same,GR15,"soybeans; Ray silt loam, Table XVII B",2.0 Kg/Ha
same,GR15,"soybeans; Sarpy silty clay, Table XVII B",3.0 Kg/Ha
same,GR15,soybeans; [3],2.2 Kg/Ha
